Measurements from patent publication US20120121656A1, “METHODS AND COMPOSITIONS FOR PROTECTING AGAINST NEUROTOXICITY OF A NEUROTOXIC AGENT, AND IMPROVING MOTOR COORDINATION ASSOCIATED WITH A NEURODEGENERATIVE CONDITION OR DISEASE” (Revalesio Corporation, priority 2010, published 2012).

Key:
[1] = Body weight of rats in the MBP EAE model; assay type: in vivo, Lewis rats; details: Group 2F, 1 mg/kg IP once daily from study day 0
Description: (§1) Body Weights. Body weight loss can be the first sign of disease initiation, while a sudden marked weight gain tends to accompany remission of EAE symptoms. Therefore, determination of individual body weights of animals was made shortly before EAE induction on study day 0 (study commencement) and thereafter on a daily basis throughout the entire 21-day observation period.
as §1, with “This working EXAMPLE discloses the weight change of rats subjected to the experiment described in Example 7.” for “Body Weights.”, “and” for “and thereafter”, “the” for “the entire”

[2] = target: T1, MMP-2 (Homo sapiens, UniProt P08253); details: cited from earlier work
T1 sequence (P08253 110-660): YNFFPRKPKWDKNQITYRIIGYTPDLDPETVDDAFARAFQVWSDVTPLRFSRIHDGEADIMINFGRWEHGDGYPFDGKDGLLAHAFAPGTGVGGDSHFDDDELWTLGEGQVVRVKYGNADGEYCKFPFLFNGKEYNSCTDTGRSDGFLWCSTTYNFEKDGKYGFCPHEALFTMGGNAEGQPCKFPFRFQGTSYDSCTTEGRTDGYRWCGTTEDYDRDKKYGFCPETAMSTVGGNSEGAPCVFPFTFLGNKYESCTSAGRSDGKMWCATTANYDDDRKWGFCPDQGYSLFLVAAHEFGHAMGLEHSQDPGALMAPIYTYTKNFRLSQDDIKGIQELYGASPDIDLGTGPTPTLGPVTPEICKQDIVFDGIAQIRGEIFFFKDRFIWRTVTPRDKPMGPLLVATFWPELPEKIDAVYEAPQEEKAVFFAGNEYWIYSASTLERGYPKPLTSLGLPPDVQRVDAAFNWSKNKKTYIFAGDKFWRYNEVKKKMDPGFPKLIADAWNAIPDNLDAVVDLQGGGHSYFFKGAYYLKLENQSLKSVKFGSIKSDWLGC

[3] = target: MMP-9 (Homo sapiens, UniProt P14780); details: cited from earlier work
Sequence of MMP-9 (P14780 94-707, species assumed): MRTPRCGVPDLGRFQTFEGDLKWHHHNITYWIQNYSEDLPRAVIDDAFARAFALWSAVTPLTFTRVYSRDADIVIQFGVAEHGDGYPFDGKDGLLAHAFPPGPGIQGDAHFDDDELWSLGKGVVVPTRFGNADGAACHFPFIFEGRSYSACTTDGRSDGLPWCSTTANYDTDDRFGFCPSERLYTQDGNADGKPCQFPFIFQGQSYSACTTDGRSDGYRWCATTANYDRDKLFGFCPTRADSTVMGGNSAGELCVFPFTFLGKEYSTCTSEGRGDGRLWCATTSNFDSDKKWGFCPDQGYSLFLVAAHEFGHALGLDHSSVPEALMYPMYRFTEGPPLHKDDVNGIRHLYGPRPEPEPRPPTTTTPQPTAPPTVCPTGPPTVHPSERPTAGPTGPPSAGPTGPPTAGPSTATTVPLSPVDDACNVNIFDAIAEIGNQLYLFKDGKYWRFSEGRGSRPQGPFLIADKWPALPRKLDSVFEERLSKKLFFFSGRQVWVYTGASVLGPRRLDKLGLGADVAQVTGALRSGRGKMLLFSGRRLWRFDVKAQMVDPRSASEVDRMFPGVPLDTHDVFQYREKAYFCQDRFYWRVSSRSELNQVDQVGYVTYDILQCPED

[4] = test system: primary progressive MS; details: 943 patients with primary progressive MS (Wolinsky et al. 2007); cited from earlier work
[5] = test system: MS; details: in vivo; cited from earlier work

Molecule	binding and inhibition of MMP-2 [2]	binding and inhibition of MMP-9 [3]	further results
C[C@@H]1C[C@H]2[C@@H]3CCC4=CC(=O)C=C[C@]4(C)[C@@]3(F)[C@@H](O)C[C@]2(C)[C@@]1(O)C(=O)CO [Dexamethasone]	–	–	mean body weight loss during the study [1]: 10%; mean body weight lost at study termination [1]: 2%
O=S(=O)(CCC(S)CS)c1ccc(Oc2ccccc2)cc1 (centres unmarked) [compound 1, 4-(4-phenoxyphenylsulfonyl)butane-1,2-dithiol]	bind selectively and inhibit potently	bind selectively and inhibit potently	–
O=S(=O)(CCCC(S)CS)c1ccc(Oc2ccccc2)cc1 (centres unmarked) [compound 2, 5-(4-phenoxyphenylsulfonyl)pentane-1,2-dithiol]	bind selectively and inhibit potently	bind selectively and inhibit potently	–
glatiramer acetate	–	–	progression of disability and the disease [4]: failed to halt the progression of disability and the disease
interferon-β	–	–	effectiveness in reducing the rate of MS episodes [5]: 18-38%
